Test results published in US10149885B2, “Method of treatment or prophylaxis of infections of the eye” (STARPHARMA PTY LIMITED, priority 2012, dated 2018).
≈ marks a conversion by molar mass, not a printed value. Like-named read-outs stand apart in the source and are kept apart here.

How the values were obtained:
[1] = tested on: Gardnerella vaginalis ATCC 14018 (MMX 4153); experiment: Serial passage resistance development, MIC; assay type: cell-based; settings: for MIC: Gardnerella vaginalis
[2] = tested on: Mobiluncus curtisii ATCC 35241 (MMX 4145); experiment: Serial passage resistance development, MIC; assay type: cell-based; settings: for MIC: Mobiluncus curtisii
Adeno-5 = experiment: Plaque reduction neutralization test (NR); assay type: cell-based, Adenovirus; settings: Adeno-5/NR
Experimental: (§1) The Plaque reduction neutralization test (NR) is used to quantify the ability of a dendrimer to neutralize/inactivate virus. The dendrimer solution to be tested is diluted and mixed with a viral suspension. This is incubated to allow the dendrimer to react with the virus. This is poured over a confluent monolayer of host cells. The surface of the cell layer is covered in a layer of agar or carboxymethyl cellulose to prevent the virus from spreading. The concentration of plaque forming units can be estimated by the number of plaques (regions of infected cells) formed after a few days. Depending on the virus, the plaque forming units are measured by microscopic observation, fluorescent labelled antibodies or specific dyes that react with infected cells. The concentration of dendrimer to reduce the number of plaques by 50% compared to the dendrimer free virus gives the EC50 value.

Adeno-1 [3] = experiment: Cytopathic assay (CPE); assay type: cell-based, Adenovirus; settings: Adeno-1/CPE
Experimental: For the Cytopathic assay (CPE) Plates of cells were incubated with the respective adenovirus subtype and drug at different drug concentrations. Cells were incubated until a Cytopathic effect was clearly observed in plates where cells and virus were plated without drug. In plates where drug was added, the cytopathic effect was quantified using a light microscope and expressed as 0% (no effect) up to 100% (effect as strong as in the no drug control plates). CPE readings were plotted against the drug concentration and the EC50 value was determined as the drug concentration where 50% CPE was observed.

Adeno-1 [4] = experiment: Plaque reduction neutralization test (NR); assay type: cell-based, Adenovirus; settings: Adeno-1/NR
Experimental: as §1

[5] = tested on: Lactobacillus acidophilus MMX 5716; experiment: Serial passage resistance development, MIC; assay type: cell-based; settings: for MIC: Lactobacillus acidophilus
[6] = tested on: Prevotella bivia MMX 3447; experiment: Serial passage resistance development, MIC; assay type: cell-based; settings: for MIC: Prevotella bivia
Adenovirus = experiment: Plaque reduction neutralization test (NR), positive control, subtype not given; assay type: cell-based; settings: unidentified adenovirus
Experimental: as §1
Ribivirin was included as a positive control.

[7] = tested on: Adenovirus subtype 19 (ATCC #VR-254); experiment: Adenoviral replication titer reduction, drug added after infection (control protocol); assay type: cell-based; settings: for Percent reduction of adenoviral replication: Adeno-19, Chang C cells
Description: (§2) Adenovirus subtype 5 (ATCC #VR-5) was used with HeLa cells (ATCC #CCL-2), Adenovirus subtype 8 (ATCC #VR-1640) was used with A549 cells (ATCC #CCL-185), Adenovirus subtype 19 (ATCC #VR-254) was used with Chang C cells (ATCC #CCL-20.2) and Adenovirus 37 (ATCC #VR-929) was used with WI-38 cells (ATCC #CCL-75). Both epithelial and fibroblast cell types were used. The recovered virus was titrated in the susceptible cell lines by performing dilutions at 1/10 to 1/100,000 and addition to cells in plates. When cytopathic effect (CPE) was apparent in the virus control, titration plates were classified as positive or negative for cytopathic effect and based on the dilution of the virus applied to the different plates, the 50% tissue-culture infective dose (TCID50) was calculated using the Spearman-Kärber method (Hubert, J J (1984) Spearman-Karber Method in Bioaasay. Hunt, Dubuque, Iowa, pp 65, 66). The TCID50 establishes the dilution at which 50% of the plates show a cytopathic effect (infection). Comparing the TCID50 for sample without SPL7013 with the TCID50 values for samples with different concentrations of SPL7013 provides a measure of the percent reduction of infection achieved by each concentration of SPL7013. This percent reduction represents the activity of SPL7013 against penetration of cells with adenoviruses. A control substance (cidofovir) was tested alongside SPL7013 at 20 μg/mL, 2 μg/mL, 0.2 μg/mL and 0.02 μg/mL (Gordon Y J, Antiviral Research, 1991, 16(1), 11-16). Because cidofovir acts later in the viral replication cycle, target cells were first infected with 0.1 MOI virus and incubated 60 minutes at 37° C.±2° C. Virus was removed, cidofovir was added at the respective concentrations and cells were incubated until CPE reached its maximum. Cells were then lysed and virus was titrated as described above.

[8] = tested on: Adenovirus subtype 8 (ATCC #VR-1640); experiment: as above; assay type: cell-based; settings: for Percent reduction of adenoviral replication: Adeno-8, A549 cells
Description: as §2

[9] = tested on: Adenovirus 37 (ATCC #VR-929); experiment: as above; assay type: cell-based; settings: for Percent reduction of adenoviral replication: Adeno-37, WI-38 cells
Description: as §2

[10] = tested on: Adenovirus subtype 5 (ATCC #VR-5); experiment: as above; assay type: cell-based; settings: for Percent reduction of adenoviral replication: Adeno-5, HeLa cells
Description: as §2

Ad5 McEwen = experiment: In vivo treatment of adenoviral eye infection, ocular cultures titred by plaque assay; design: species or system NZW female rabbits; settings: 0.5% cidofovir in saline, 37 μL per eye twice a day, n = 8-10
Experimental: Following general anesthesia and corneal scarification, NZW female rabbits were inoculated in each eye with 50 μl of 3.0×10^7 PFU/mL (1.5×10^6 PFU/eye) of Ad5 McEwen. At about 3 hours after inoculation, a swab was taken of the tear film and corneal and conjunctival surfaces into tubes containing 1 mL of outgrowth media, and cultured for adenovirus.
The rabbits were then divided into 3 groups: 3% SPL7013 (n=5), Vehicle (n=5) and 0.5% cidofovir in saline as positive control (n=4). Commencing on day 1, animals were treated in each eye with 37 μL of drug 8 times a day, or 37 μL of control twice a day. Swabs of the tear film and corneal and conjunctival surfaces were taken one hour after treatment.
Ad5 titers were determined on A549 lung carcinoma cell monolayers using a standard plaque assay. The ocular cultures were diluted and inoculated onto A549 monolayers, and the virus adsorbed for 3 hours. Following adsorption, 1 mL of media plus 0.5% methylcellulose was added to each well, and the plates were incubated at 37° C. in a 5% CO2-water vapor atmosphere for 7 days, then stained with 0.5% gentian violet, and plaques were counted.

[11] = ATCC14018, read-out: MIC after serial passage
[12] = ATCC14018, read-out: MIC at baseline

Cc1ncc([N+](=O)[O-])n1CCO [Metronidazole]
MIC [1, 11]: > 128 µg/mL
MIC [1, 12]: 4 µg/mL (≈ 23.4 µM)
Fold increase of MIC ([1]; by passage 7): > 64 fold
MIC ([2]; ATCC35241, read-out: MIC after serial passage): > 128 µg/mL
MIC ([2]; ATCC35241, read-out: MIC at baseline): 8 µg/mL (≈ 46.7 µM)
Fold increase of MIC ([2]; by passage 5): > 16 fold

[NH3][PAMAM]2[CSNH-3,5-Ph(SO3Na)2]24
EC50 (Adeno-5): 150 µg/mL

[NH3][PAMAM]4NHCSNH-2-naphth-5,7-(SO3Na)2]24
EC50 (Adeno-1 [3]): 20 µg/mL

[BHALys][Lys]32deoxycholicacid[NHCSNH-4-ph-SO3Na]63
EC50 (Adeno-1 [3]): 20 µg/mL
EC50 (Adeno-1 [4]): 10 µg/mL

CO[C@H]1/C=C/O[C@@]2(C)Oc3c(C)c(O)c4c(O)c(c5c(nc6cc(C)ccn65)c4c3C2=O)NC(=O)/C(C)=C\C=C\[C@H](C)[C@H](O)[C@@H](C)[C@@H](O)[C@@H](C)[C@H](OC(C)=O)[C@@H]1C [Rifaximin]
MIC [1, 11]: 128 µg/mL (≈ 163 µM)
MIC [1, 12]: 0.06 µg/mL (≈ 0.0763 µM)
Fold increase of MIC ([1]; by passage 9): > 2000 fold
MIC ([5]; MMX5716, read-out: MIC after serial passage): 64 µg/mL (≈ 81.4 µM)
MIC ([5]; MMX5716, read-out: MIC at baseline): 1 µg/mL (≈ 1.27 µM)
Fold increase of MIC ([5]; by passage 9): 64 fold
MIC ([6]; MMX3447, read-out: MIC after serial passage): 0.12 µg/mL (≈ 0.153 µM)
MIC ([6]; MMX3447, read-out: MIC at baseline): 0.03 µg/mL (≈ 0.0382 µM)
Fold increase of MIC ([6]; passage number not given): 4 fold
Change of MIC during passage (in words) ([2]; 10 serial passages): No apparent increase

NC(=O)c1ncn([C@@H]2O[C@H](CO)[C@@H](O)[C@H]2O)n1 [Ribavirin]
EC50 (Adenovirus): 10 µg/mL (≈ 40.9 µM)

Nc1ccn(C[C@@H](CO)OCP(=O)(O)O)c(=O)n1 [cidofovir]
Percent reduction of adenoviral replication ([7]; cidofovir 0.02 μg/mL): 0.00%
Percent reduction of adenoviral replication ([7]; cidofovir 0.2 μg/mL): 0.00%
Percent reduction of adenoviral replication ([7]; cidofovir 2 μg/mL): 43.77%
Percent reduction of adenoviral replication ([7]; cidofovir 20 μg/mL): 94.38%
IC50 ([7]; unidentified adenovirus, Adeno-19, estimated, molar basis (279 g/mol)): 52400 nM
Percent reduction of adenoviral replication ([8]; cidofovir 0.02 μg/mL): 90.00%
Percent reduction of adenoviral replication ([8]; cidofovir 0.2 μg/mL): 98.22%
Percent reduction of adenoviral replication ([8]; cidofovir 2 μg/mL): 98.67%
Percent reduction of adenoviral replication ([8]; cidofovir 20 μg/mL): 99.00%
IC50 ([8]; unidentified adenovirus, Adeno-8, estimated, molar basis (279 g/mol)): 112 nM
Percent reduction of adenoviral replication ([9]; cidofovir 0.02 μg/mL): 0.00%
Percent reduction of adenoviral replication ([9]; cidofovir 0.2 μg/mL): 57.83%
Percent reduction of adenoviral replication ([9]; cidofovir 2 μg/mL): 99.99%
Percent reduction of adenoviral replication ([9]; cidofovir 20 μg/mL): >99.99%
IC50 ([9]; unidentified adenovirus, Adeno-37, estimated, molar basis (279 g/mol)): 112 nM
Percent reduction of adenoviral replication ([10]; cidofovir 0.02 μg/mL): 68.38%
Percent reduction of adenoviral replication ([10]; cidofovir 0.2 μg/mL): 82.22%
Percent reduction of adenoviral replication ([10]; cidofovir 2 μg/mL): 86.66%
Percent reduction of adenoviral replication ([10]; cidofovir 20 μg/mL): 90.00%
IC50 ([10]; unidentified adenovirus, Adeno-5, estimated, molar basis (279 g/mol)): 559 nM
% Ad5 -Positive cultures (Ad5 McEwen; Day 0 (before treatment)): 100%
% Ad5 -Positive cultures (Ad5 McEwen; Day 1): 100%
% Ad5 -Positive cultures (Ad5 McEwen; Day 3): 100%
% Ad5 -Positive cultures (Ad5 McEwen; Day 4): 75%
